Patent publication US10227359B2, “Tricyclic heterocycles as bet protein inhibitors” (Incyte Corporation, priority 2014, dated 2019)

Legend:
[1] = tested on: KMS.12.BM cell line (human myeloma); assay: KMS.12.BM Cell Viability Assay; assay type: cell-based; conditions: 72 h, KMS.12.BM cells, 3 days, Cell Titer-GLO, read-out: KMS cellular IC50
Experimental: Example B1: KMS.12.BM Cell Viability Assay
KMS.12.BM cell line (human myeloma) was purchased from JCRB (Osaka, Japan) and maintained in RPMI with 10% FBS culture medium. To measure the cytotoxic activity of the compounds through ATP quantitation, the KMS.12.BM cells are plated in the RPMI culture medium at 5000 cells/well/per 100 μL into a 96-well polystyrene clear black tissue culture plate (Greiner-bio-one through VWR, NJ), in the presence or absence of a concentration range of test compounds. After 3 days, […] Cell Titer-GLO Luminescent (Promega, Madison, Wis.) cell culture agent is added to each well for 10 min. at room temperature to stabilize the luminescent signal. This determines the number of viable cells in culture based on quantitation of the ATP present, which signals the presence of metabolically active cells. Luminescence is measured with the Top Count 384 (Packard Bioscience through Perkin Elmer, Boston, Mass.). Compound inhibition is determined relative to cells cultured with no drug and the IC50 reported as the compound concentration required for 50% cell death.

[2] = tested on: C-myc in KMS.12.BM cells; assay: KMS.12.BM C-myc ELISA Assay; assay type: cell-based; conditions: Homo sapiens, 2 h
Experimental: KMS.12.BM C-myc ELISA Assay
KMS.12.BM cell line (human myeloma) was purchased from JCRB (Osaka, Japan) and maintained in RPMI with 10% FBS culture medium. To measure the C-myc inhibitory activity of the compounds, the KMS.12.BM cells are plated in the RPMI culture medium at 75000 cells/well/per 200 μL into a 96-well flat bottom polystyrene tissue culture plate (Corning through VWR, NJ), in the presence or absence of a concentration range of test compounds. After 2 h, cells are pelleted and lysed with Cell Extraction Buffer (BioSource, Carlsbad, Calif.) in the presence of protease inhibitors (Life Technologies, Grand Island, N.Y. and Sigma, St Louis, Mo.). Clarified lyses are tested in a C-myc commercial ELISA (Life Technologies, Grand Island, N.Y.). Compound inhibition is determined relative to cells cultured with no drug and the IC50 reported as the compound concentration required for 50% C-myc inhibition.

| IC50 [1] [nM] | IC50 [2] [nM] | Compound |
| --- | --- | --- |
| ≤ 100 | 100 to 1000 | Cc1noc(C)c1-c1ccc2nc(N3CCC(N(C)C(=O)C4CCC4)CC3)n3c2c1OC[C@@H]3c1ccccn1 [Example 20, N-{1-[(4S)-7-(3,5-dimethylisoxazol-4-yl)-4-pyridin-2-yl-4,5-dihydroimidazo[1,5,4-de][1,4]benzoxazin-2-yl]piperidin-4-yl}-N-methylcyclobutanecarboxamide] |
| ≤ 100 | ≤ 100 | Cc1noc(C)c1-c1ccc2nc(N3CCN(C(=O)C(C)(C)C)CC3)n3c2c1OC[C@@H]3c1ccccn1 [Example 26, (4S)-7-(3,5-dimethylisoxazol-4-yl)-2-[4-(2,2-dimethylpropanoyl)piperazin-1-yl]-4-pyridin-2-yl-4,5-dihydroimidazo[1,5,4-de][1,4]benzoxazine] |
| ≤ 100 | ≤ 100 | CC(=O)N1C[C@@H](C)N(c2nc3ccc(-c4c(C)noc4C)c4c3n2[C@@H](c2ccccn2)CO4)[C@@H](C)C1 (atropisomer, axis not shown) [Example 2, (4S)-2-[(2R,6S)-4-Acetyl-2,6-dimethylpiperazin-1-yl]-7-(3,5-dimethylisoxazol-4-yl)-4-pyridin-2-yl-4,5-dihydroimidazo[1,5,4-de][1,4]benzoxazine] |
| ≤ 100 | ≤ 100 | CCS(=O)(=O)NC1CCN(c2nc3ccc(-c4c(C)noc4C)c4c3n2[C@@H](c2ccccn2)CO4)CC1 [Example 14, N-{1-[(4S)-7-(3,5-dimethylisoxazol-4-yl)-4-pyridin-2-yl-4,5-dihydroimidazo[1,5,4-de][1,4]benzoxazin-2-yl]piperidin-4-yl}ethanesulfonamide] |
| ≤ 100 | ≤ 100 | Cc1noc(C)c1-c1ccc2nc(N3CCN(C(=O)C4CC4)CC3)n3c2c1OC[C@@H]3c1ccccn1 [Example 27, (4S)-2-[4-(cyclopropylcarbonyl)piperazin-1-yl]-7-(3,5-dimcthylisoxazol-4-yl)-4-pyridin-2-yl-4,5-dihydroimidazo[1,5,4-de][1,4]benzoxazine] |
| ≤ 100 | ≤ 100 | Cc1noc(C)c1-c1ccc2nc(N3CCC(NC(=O)C(C)(C)C)CC3)n3c2c1OC[C@@H]3c1ccccn1 [Example 11, N-{1-[(4S)-7-(3,5-dimethylisoxazol-4-yl)-4-pyridin-2-yl-4,5-dihydroimidazo[1,5,4-de][1,4]benzoxazin-2-yl]piperidin-4-yl}-2,2-dimethylpropanamide] |
| ≤ 100 | ≤ 100 | CC(=O)N1CCN(c2nc3ccc(-c4c(C)noc4C)c4c3n2[C@@H](c2ccccn2)CO4)[C@@H](C)C1 [Example 3, (4S)-2-[(2S)-4-acetyl-2-methylpiperazin-1-yl]-7-(3,5-dimethylisoxazol-4-yl)-4-pyridin-2-yl-4,5-dihydroimidazo[1,5,4-de][1,4]benzoxazine] |
| ≤ 100 | ≤ 100 | CCCC(=O)NC1CCN(c2nc3ccc(-c4c(C)noc4C)c4c3n2[C@@H](c2ccccn2)CO4)CC1 [Example 10, N-{1-[(4S)-7-(3,5-dimethylisoxazol-4-yl)-4-pyridin-2-yl-4,5-dihydroimidazo[1,5,4-de][1,4]benzoxazin-2-yl]piperidin-4-yl}butanamide] |
| ≤ 100 | ≤ 100 | Cc1noc(C)c1-c1ccc2nc(N3CCN(C(=O)C(C)C)CC3)n3c2c1OC[C@@H]3c1ccccn1 [Example 1, (4S)-7-(3,5-Dimethylisoxazol-4-yl)-2-(4-isobutyrylpiperazin-1-yl)-4-pyridin-2-yl-4,5-dihydroimidazo[1,5,4-de][1,4]benzoxazine] |
| ≤ 100 | ≤ 100 | Cc1noc(C)c1-c1ccc2nc(N3CCC(N(C)C(=O)C4CC4)CC3)n3c2c1OC[C@@H]3c1ccccn1 [Example 19, N-{1-[(4S)-7-(3,5-dimelhylisoxazol-4-yl)-4-pyridin-2-yl-4,5-dihydroimidazo[1,5,4-de][1,4]benzoxazin-2-yl]piperidin-4-yl}-N-methylcyclopropanecarboxamide] |
| ≤ 100 | ≤ 100 | Cc1noc(C)c1-c1ccc2nc(N3CCC(NC(=O)C4CCC4)CC3)n3c2c1OC[C@@H]3c1ccccn1 [Example 13, N-{1-[(4S)-7-(3,5-dimethylisoxazol-4-yl)-4-pyridin-2-yl-4,5-dihydroimidazo[1,5,4-de][1,4]benzoxazin-2-yl]piperidin-4-yl}cyclobutanecarboxamide] |
| ≤ 100 | ≤ 100 | CCCC(=O)N1CCN(c2nc3ccc(-c4c(C)noc4C)c4c3n2[C@@H](c2ccccn2)CO4)CC1 [Example 25, (4S)-2-(4-butyrylpiperazin-1-yl)-7-(3,5-dimethylisoxazol-4-yl)-4-pyridin-2-yl-4,5-dihydroimidazo[1,5,4-de][1,4]benzoxazine] |
| ≤ 100 | ≤ 100 | CCCC(=O)N(C)C1CCN(c2nc3ccc(-c4c(C)noc4C)c4c3n2[C@@H](c2ccccn2)CO4)CC1 [Example 16, N-{1-[(4S)-7-(3,5-dimethylisoxazol-4-yl)-4-pyridin-2-yl-4,5-dihydroimidazo[1,5,4-de][1,4]benzoxazin-2-yl]piperidin-4-yl}-N-methylbutanamide] |
| ≤ 100 | ≤ 100 | Cc1noc(C)c1-c1ccc2nc(N3CCC(N(C)C(=O)N(C)C)CC3)n3c2c1OC[C@@H]3c1ccccn1 [Example 21, N-{1-[(4S)-7-(3,5-dimethylisoxazol-4-yl)-4-pyridin-2-yl-4,5-dihydroimidazo[1,5,4-de][1,4]benzoxazin-2-yl]piperidin-4-yl}-N,N′,N′-trimethylurea] |
| ≤ 100 | 100 to 1000 | CCS(=O)(=O)N(C)C1CCN(c2nc3ccc(-c4c(C)noc4C)c4c3n2[C@@H](c2ccccn2)CO4)CC1 [Example 23, N-{1-[(4S)-7-(3,5-dimethylisoxazol-4-yl)-4-pyridin-2-yl-4,5-dihydroimidazo[1,5,4-de][1,4]benzoxazin-2-yl]piperidin-4-yl}-N-methylethanesulfonamide] |
| ≤ 100 | ≤ 100 | CCC(=O)N(C)C1CCN(c2nc3ccc(-c4c(C)noc4C)c4c3n2[C@@H](c2ccccn2)CO4)CC1 [Example 15, N-{1-[(4S)-7-(3,5-dimethylisoxazol-4-yl)-4-pyridin-2-yl-4,5-dihydroimidazo[1,5,4-de][1,4]benzoxazin-2-yl]piperidin-4-yl}-N-methylpropanamide] |
| ≤ 100 | ≤ 100 | Cc1noc(C)c1-c1ccc2nc(N3CCC(N(C)S(C)(=O)=O)CC3)n3c2c1OC[C@@H]3c1ccccn1 [Example 22, N-{1-[(4S)-7-(3,5-dimethylisoxazol-4-yl)-4-pyridin-2-yl-4,5-dihydroimidazo[1,5,4-de][1,4]benzoxazin-2-yl]piperidin-4-yl}-N-methylmethanesulfonamide] |
| ≤ 100 | ≤ 100 | COCC(=O)N1CCN(c2nc3ccc(-c4c(C)noc4C)c4c3n2[C@@H](c2ccccn2)CO4)CC1 [Example 29, (4S)-7-(3,5-dimethylisoxazol-4-yl)-2-[4-(methoxyacetyl)piperazin-1-yl]-4-pyridin-2-yl-4,5-dihydroimidazo[1,5,4-de][1,4]benzoxazine] |
| ≤ 100 | ≤ 100 | CC(=O)N1CC2CC1CN2c1nc2ccc(-c3c(C)noc3C)c3c2n1[C@@H](c1ccccn1)CO3 (stereo partly drawn) [Example 4, (4S)-2-(5-acetyl-2,5-diazabicyclo[2.2.1]hept-2-yl)-7-(3,5-dimethylisoxazol-4-yl)-4-pyridin-2-yl-4,5-dihydroimidazo[1,5,4-de][1,4]benzoxazine] |
| ≤ 100 | ≤ 100 | Cc1noc(C)c1-c1ccc2nc(N3CCC(N(C)C(=O)C(C)C)CC3)n3c2c1OC[C@@H]3c1ccccn1 [Example 17, N-{1-[(4S)-7-(3,5-dimethylisoxazol-4-yl)-4-pyridin-2-yl-4,5-dihydroimidazo[1,5,4-de][1,4]benzoxazin-2-yl]piperidin-4-yl}-N,2-dimethylpropanamide] |
| ≤ 100 | ≤ 100 | Cc1noc(C)c1-c1ccc2nc(N3CCC(NC(=O)C4CC4)CC3)n3c2c1OC[C@@H]3c1ccccn1 [Example 12] |
| ≤ 100 | ≤ 100 | Cc1noc(C)c1-c1ccc2nc(N3CCC(N(C)S(=O)(=O)C4CC4)CC3)n3c2c1OC[C@@H]3c1ccccn1 [Example 24, N-{1-[(4S)-7-(3,5-dimethylisoxazol-4-yl)-4-pyridin-2-yl-4,5-dihydroimidazo[1,5,4-de][1,4]benzoxazin-2-yl]piperidin-4-yl}-N-methylcyclopropanesulfonamide] |
| ≤ 100 | ≤ 100 | CC(=O)NC1(C)CCN(c2nc3ccc(-c4c(C)noc4C)c4c3n2[C@@H](c2ccccn2)CO4)CC1 [Example 5, N-{1-[(4S)-7-(3,5-dimethylisoxazol-4-yl)-4-pyridin-2-yl-4,5-dihydroimidazo[1,5,4-de][1,4]benzoxazin-2-yl]-4-methylpiperidin-4-yl}acetamide] |
